Test results from US20220175721A1, “TREATMENT FOR POLYCYSTIC OVARIAN SYNDROME (PCOS)” (Cadila Healthcare Limited, priority 2019, published 2022).
“And” between values parts separate entries of the source, which are not always exact repeats. Equal values may be shown once.

What was measured:
Format in all cases: in vivo
[1] = test system: letrozole-induced PCOS in female Zucker fa/fa rats; experiment: Serum LH, FSH and testosterone (ELISA) in letrozole-induced PCOS rats; conditions: (Ia) 4 mg/kg
Protocol: (§1) Female Zucker fa/fa rats (6-8 weeks) were issued from animal house of Zydus research Centre and quarantined for 7 weeks. At the age of 13-15 weeks all animals were administered Letrozole (1 mg/kg/2 ml) orally for 4 weeks to induce PCOS.
(§2) After 4 weeks of Letrozole, all animals with confirmed PCOS on basis of body weight and estrous cycle were randomized. […] Letrozole (1 mg/kg/2 mL) treatment was continued.
After 4 weeks of compound of formula (Ia) treatment, Insulin was subcutaneously injected at 1.5 U/kg regular insulin and 2 g/kg glucose load was administered orally. Blood was collected 40 min following injection. Serum samples were analyzed for LH, FSH and testosterone using ELISA kit according to manufacturer's instructions.

[2] = test system: letrozole-induced PCOS in female Zucker fa/fa rats; experiment: Ovaries weight in letrozole-induced PCOS rats; conditions: (Ia) 4 mg/kg; for Ovaries weight, % Change Vs Vehicle Control / Ovaries weight: after 4 weeks of oral treatment, metformin 200 mg/kg; for Ovaries weight: Mean±SEM, n=6
Protocol: as §1, with “PCOS. […] Letrozole (1 mg/kg/2 mL) treatment was continued. At the end of study, animals were sacrificed by cervical dislocation and ovaries were collected and weighed.” for “PCOS.”

[3] = test system: letrozole-induced PCOS in female Zucker fa/fa rats; experiment: Insulin tolerance test in letrozole-induced PCOS rats; conditions: (Ia) 4 mg/kg
Protocol: as §1, §2
Continuing compound of formula (Ia) treatment for next two days, insulin tolerance test was performed after 6 h fast. […] Whole blood glucose was estimated using One-touch ultra-blood glucose meter. Blood glucose levels were then estimated at 0, 15, 30, 60 and 120 min corresponding to the insulin injection.

[4] = test system: Letrozole-induced polycystic ovary syndrome (PCOS) in female Wistar rats; experiment: Histological count of cystic follicles in letrozole-induced PCOS rats
Protocol: Sixty female Wistar rats (7-8 weeks) were issued from animal house of Zydus research Centre and quarantined for 4 weeks. At the age of 11-12 weeks all animals were randomized on body weight basis into two treatment groups, namely, vehicle (n=10) as non-PCOS or Letrozole (n=50) for PCOS. Formulated Letrozole (1 mg/kg/2 ml) were administered orally for 4 weeks to induce PCOS.
After 4 weeks of Letrozole, all animals with confirmed PCOS on basis of body weight and estrous cycle were randomized. After randomization, animals were assigned to either Vehicle control or Compound of Formula (Ia) (4 mg/kg, PO) treatment (n=8). Letrozole (1 mg/kg/2 mL) treatment was continued. Rest of the animals was sacrificed.
At the end of treatment, animals were sacrificed by cervical dislocation and ovaries were collected in 10% formalin. Ovaries were processed and embedded in paraffin and subjected to serial sectioning at 3-5 μm using rotary microtome, and sections were transferred on glass slides and stained with haematoxylin-eosin (H and E). The evaluation was done using light microscope and grading of the tissue pathological status was done. Total numbers of cystic follicles were counted on all sections throughout each ovary.

[5] = after 4 weeks of oral treatment, metformin 200 mg/kg
[6] = after 4 weeks of oral treatment, metformin 200 mg/kg, Mean±SEM, n=6
[7] = repeated dose oral treatment, alone or with metformin 200 mg/kg
[8] = 4 mg/kg, individual animal mean of 6 sections
[9] = 4 mg/kg, individual animal, ovary sections 1-6

In the case of `CN(C)C(=N)N=C(N)N` [Metformin, reference compound], the “Serum FSH, % Change Vs Vehicle Control” value [1, 5] is reported as 4.4 ± 3.6%, the “Serum LH, % Change Vs Vehicle Control” value [1, 5] is reported as 0.81 ± 3.1% and the “Serum testosterone, % Change Vs Vehicle Control” value [1, 5] is reported as −2.4 ± 4.1%. For the same molecule, the “Serum FSH” value [1, 6] was 85.3 ± 3.2 ng/mL, the “Serum LH” value [1, 6] was 109.6 ± 9.2 ng/mL and the “Serum testosterone” value [1, 6] was 4.0 ± 0.9 ng/mL. For the same molecule, the “Ovaries weight, % Change Vs Vehicle Control” value [2] was −2.4 ± 4.1% and the “Ovaries weight” value [2] was 169.8 ± 11.9 mg.
For `CCO[C@@H](Cc1ccc(OCCn2c(C)ccc2-c2ccc(SC)cc2)cc1)C(=O)O` [Compound of Formula (Ia), Saroglitazar Magnesium], the “AUC glucose, % Change Vs Vehicle Control” value ([3]; insulin tolerance test after 4 weeks of oral treatment, metformin 200 mg/kg) was −37.4 ± 4.9%, the “AUC glucose (120 min*mg/dL)” value ([3]; insulin tolerance test after 4 weeks of oral treatment, metformin 200 mg/kg, Mean±SEM, n=6) was 6819.0 ± 535.8 mg·min/dL and the “insulin sensitivity (in words)” value [3, 7] was “significantly improved”. The “LH/FSH ratio, % Change Vs Vehicle Control” value [1, 5] was −17.1 ± 6.0%, the “Serum FSH, % Change Vs Vehicle Control” value [1, 5] was 32.3 ± 4.5% and the “Serum LH, % Change Vs Vehicle Control” value [1, 5] was 9.9 ± 7.4%. The “Serum testosterone, % Change Vs Vehicle Control” value [1, 5] was −61.8 ± 4.7%, the LH/FSH ratio [1, 6] was 1.2 ± 0.1 and the “Serum FSH” value [1, 6] was 103.1 ± 3.5 ng/mL. The “Serum LH” value [1, 6] was 121.4 ± 8.2 ng/mL, the “Serum testosterone” value [1, 6] was 1.6 ± 0.2 ng/mL and the “LH/FSH ratio (in words)” value ([1]; repeated dose oral treatment) was “decreased”. For the same molecule, the “serum FSH (in words)” value ([1]; repeated dose oral treatment) was “increased”, the “serum testosterone (in words)” value [1, 7] was “decreased” and the “Ovaries weight, % Change Vs Vehicle Control” value [2] was −20.7 ± 3.5%. For the same molecule, the “Ovaries weight” value [2] was 137.2 ± 6.1 mg, the “ovary weight (in words)” value [2, 7] was “normalized” and the “cystic follicles, Mean of ovary sections, Animal-9” value [4, 8] was 3.50. The “cystic follicles, Mean of ovary sections, Animal-10” value [4, 8] was 3.50, the “cystic follicles, Mean of ovary sections, Animal-11” value [4, 8] was 7.50 and the “cystic follicles, Mean of ovary sections, Animal-12” value [4, 8] was 3.83. For the same molecule, the “cystic follicles, Mean of ovary sections, Animal-13” value [4, 8] was 2.00, the “cystic follicles, Mean of ovary sections, Animal-14” value [4, 8] was 4.67 and the “cystic follicles, Mean of ovary sections, Animal-15” value [4, 8] was 3.83. The “cystic follicles, Mean of ovary sections, Animal-16” value [4, 8] was 9.50, the “cystic follicles per ovary section, Animal-9” value [4, 9] was 4 (3×) and 3 (3×) and the “cystic follicles per ovary section, Animal-10” value [4, 9] was 3 (3×) and 4 (3×). For the same molecule, the “cystic follicles per ovary section, Animal-11” value [4, 9] was 7 (3×) and 8 (3×), the “cystic follicles per ovary section, Animal-12” value [4, 9] was 4 and 3 (3×) and 5 (2×) and the “cystic follicles per ovary section, Animal-13” value [4, 9] was 2. The “cystic follicles per ovary section, Animal-14” value [4, 9] was 5 (4×) and 4 (2×), the “cystic follicles per ovary section, Animal-15” value [4, 9] was 4 and 3 (3×) and 5 (2×) and the “cystic follicles per ovary section, Animal-16” value [4, 9] was 11 (3×) and 10 and 2 and 12. For the same molecule, the “Number of cystic follicle, % Change Vs Vehicle control” value ([4]; after 4 weeks of treatment, 4 mg/kg PO) was −56.6 ± 7.9%, the “Number of cystic follicle” value ([4]; after 4 weeks of treatment, 4 mg/kg PO, Mean ± SEM, n=8) was 4.79 ± 0.87 and the “occurrence of cystic follicles (in words)” value ([4]; female Wistar rats, PCOS induced using Letrozole) was “significantly decreased”.
